Results on 41 compounds are retold here after US5250428A, “L-gulono-gamma-lactone-dehydrogenase for producing vitamin C” (Hoffmann-La Roche Inc., priority 1990, dated 1993).

The subject of test [1] is L-gulono-gamma-lactone dehydrogenase (GLDH). As to the kind of experiment: Substrate specificity of GLDH (DCIP reduction enzyme assay). As to conditions: substrate 400 mM; for Relative activity (%): 25° C., DCIP/PMS, L-gulono-gamma-lactone = 100. Format: biochemical, Gluconobacter oxydans DSM 4025. The method, then:
(§1) The enzyme assay was performed at 25° C. by measuring the decrease of absorbance at 600 nm of DCIP spectrophotometrically. One unit of enzyme activity was defined as the amount of enzyme which catalyzed the reduction of 1 μmole of DCIP per minute. The extinction coefficient of DCIP at pH 7.0 was taken as 14.5 mM^-1. A cuvette with 1 cm light path contained 0.16 mM DCIP, 1.6 mM phenazine methosulfate, 200 mM potassium phosphate buffer, 400 mM L-gulono-gamma-lactone, enzyme solution and water in a final volume of 0.5 ml. A reference cuvette contained all components except L-gulono gamma-lactone. The reaction was started by the addition of L-gulono-gamma-lactone. Enzyme activity was measured as the initial reduction rate of DCIP.
Substrate specificity of the enzyme was determined using the same enzyme assay method as described as above except that the various substrate solutions (400 mM) were used instead of L-gulono-gamma-lactone.

For test [2] the test system is unchanged. As to the kind of experiment: Effect of metal ions on GLDH enzyme activity. It is filed as biochemical, Gluconobacter oxydans DSM 4025. Here is the method:
The enzyme assay was performed at 25° C. by measuring the decrease of absorbance at 600 nm of DCIP spectrophotometrically. One unit of enzyme activity was defined as the amount of enzyme which catalyzed the reduction of 1 μmole of DCIP per minute. […] A reference cuvette contained all components except L-gulono gamma-lactone. The reaction was started by the addition of L-gulono-gamma-lactone. Enzyme activity was measured as the initial reduction rate of DCIP.
Using the same enzyme assay method as described under 1), the effect of various metal ions on the enzyme activity was examined.

For test [3] the test system is unchanged. To be noted: conversion of L-gulono-gamma-lactone to L-ascorbic acid.
Test [4] has the same test system. Nature of the test: Effect of inhibitors on GLDH enzyme activity. Format: biochemical, Gluconobacter oxydans DSM 4025. The method, then:
as §1
Using the same enzyme assay method as described above, the effect of various inhibitors on the enzyme activity was examined. No compounds tested gave an inhibitory effect on the GLDH.

Test [5] shares this test system. As to the kind of experiment: Measurement of the Km value (DCIP enzyme assay). It is filed as biochemical, Gluconobacter oxydans DSM 4025. Here is the method: as §1
Using the same enzyme assay method as described above, the rate of the oxidizing reaction with varying the concentrations of L-gulono-gamma lactone from 0.18 mM to 90 mM was measured to determine the Km value for L-gulono-gamma-lactone.

Where “and” joins values, the source holds several entries; their conditions need not be identical. Equal entries are not always repeated.

For the compound `O=C[C@H](O)[C@@H](O)[C@H](O)[C@H](O)C(=O)O` [D-Glucuronic acid], the “Relative activity (%)” value in test [1] is 0%.

Consider MnSO4.4-6H2 O, for which the “Relative activity (%)” value in test [2] (metal 0.19 mM) is reported as 100%; in test [2] (metal 0.38 mM), 0%; in test [2] (metal 0.89 mM), 0%.

For the compound TiCl, the “Relative activity (%)” value came to 88% in test [2] (metal 0.19 mM), 92% in test [2] (metal 0.38 mM) and 80% in test [2] (metal 0.89 mM).

`O=C[C@H](O)[C@@H](O)[C@H](O)[C@H](O)CO` [D-Glucose]: in test [1], the “activity of GLDH on substrate” value is “weakly active” and the “Relative activity (%)” value is on record as 23.4%.

Regarding `O=O` [oxygen], the “enzyme activity with oxygen as electron acceptor” value in test [3] is given as “lack of enzyme catalyzing activity”.

For the compound `O.O.O.O.O.O.O.O=[As]([O-])([O-])O.[Na+].[Na+]` [Na2 HAsO4 7H2 O], the “Relative activity (%)” value in test [4] (inhibitor 0.96 mM) is given as 95.2%; in test [4] (inhibitor 1.89 mM), 104.8%; in test [4] (inhibitor 4.46 mM), 97.6%.

For `O.O.O.O.O.O.O.O=S(=O)([O-])[O-].[Mg+2]` [MgSO4.7H2 O], the “Relative activity (%)” value in test [2] (metal 0.19 mM) came to 92%; in test [2] (metal 0.38 mM) it was 96%; in test [2] (metal 0.89 mM) it was 92%.

With `O.O.O.O.O=[N+]([O-])[O-].O=[N+]([O-])[O-].[Ca+2]` [Ca(NO3)2.4H2 O], the “Relative activity (%)” value in test [2] (metal 0.19 mM) is listed as 100%; in test [2] (metal 0.38 mM) it was 100%; in test [2] (metal 0.89 mM), 96%.

With `O.O.[Cl][Cu][Cl]` [CuCl2.2H2 O], the “Relative activity (%)” value in test [2] (metal 0.19 mM) is recorded as 84%; in test [2] (metal 0.38 mM) it was 8%; in test [2] (metal 0.89 mM), 0%.

Regarding `O.O.O.O=[N+]([O-])[O-].O=[N+]([O-])[O-].[Cu+2]` [Cu(NO3)2.3H2 O], the “Relative activity (%)” value in test [2] (metal 0.19 mM) is reported as 88%; in test [2] (metal 0.38 mM), 24%; in test [2] (metal 0.89 mM), 0%.

Consider `O.O.O.O.O.O.O.O=S(=O)([O-])[O-].[Co+2]` [CoSO4.7H2 O], for which the figures for the “Relative activity (%)” value in test [2] (metal 0.19 mM), in test [2] (metal 0.38 mM) and in test [2] (metal 0.89 mM) were 96%, 108% and 88%, respectively.

As for Fe(SO4)3.xH2 O, the “Relative activity (%)” value was determined as 104% in test [2] (metal 0.19 mM), 92% in test [2] (metal 0.38 mM) and 76% in test [2] (metal 0.89 mM).

As for `NN` [Hydrazine monohydrate], the “Relative activity (%)” value in test [4] (inhibitor 1.0 mM) is given as 100%.

For the compound `[F-].[Na+]` [Sodium fluoride], the figures for the “Relative activity (%)” value in test [4] (inhibitor 0.96 mM), in test [4] (inhibitor 1.89 mM) and in test [4] (inhibitor 4.46 mM) were 107.1%, 114.3% and 97.6%, respectively.

With `O=C(O)[C@H](O)[C@@H](O)[C@H](O)[C@H](O)CO` [D-Gluconic acid], the “Relative activity (%)” value in test [1] came to 0%.

As for `O=C[C@H](O)[C@@H](O)[C@H](O)CO` [D-Xylose], in test [1], the “activity of GLDH on substrate” value is “highly active” and the “Relative activity (%)” value came out at 110.6%.

Turning to `O=C[C@H](O)[C@@H](O)[C@@H](O)[C@H](O)CO` [D-Galactose], the “Relative activity (%)” value in test [1] is 0%.

Take `[Cu+2]` [Cu^2+]: the “inhibition of the enzyme by metal ion” value in test [2] is “strong inhibition”.

For `O=C[C@@H](O)[C@@H](O)[C@H](O)[C@@H](O)CO` [L-Gulose], in test [1], the “Relative activity (%)” value came to 0%.

Consider `O.O.O.O.O.O.O.O=S(=O)([O-])[O-].[Ni+2]` [NiSO4.7H2 O], for which the “Relative activity (%)” value in test [2] (metal 0.19 mM) was determined as 96%; in test [2] (metal 0.38 mM), 96%; in test [2] (metal 0.89 mM) it was 88%.

For `O=S(=O)([O-])[O-].[Cu+2]` [CuSO4], the “Relative activity (%)” value worked out at 92% in test [2] (metal 0.19 mM), 24% in test [2] (metal 0.38 mM) and 12% in test [2] (metal 0.89 mM).

For the compound `[N-]=[N+]=[N-]` [Sodium azide], the “Relative activity (%)” value was determined as 100% in test [4] (inhibitor 0.96 mM), 97.6% in test [4] (inhibitor 1.89 mM) and 97.6% in test [4] (inhibitor 4.46 mM).

For `O.O.[Na+].[Na+].[O]=[Mo](=[O])([O-])[O-]` [Na2 MoO4.2H2 O], the “Relative activity (%)” value in test [2] (metal 0.19 mM) is reported as 104%; in test [2] (metal 0.38 mM) it was 96%; in test [2] (metal 0.89 mM), 88%.

`O=C[C@H](O)[C@H]1OC(=O)[C@@H](O)[C@H]1O` [D-Glucurono-r-lactone]: in test [1], the “activity of GLDH on substrate” value was “weakly active” and the “Relative activity (%)” value is 6.38%.

In the case of `O.O.O.O.[Cl][Mn][Cl]` [MnCl2.4H2 O], the “Relative activity (%)” value is 100% in test [2] (metal 0.19 mM), 0% in test [2] (metal 0.38 mM) and 0% in test [2] (metal 0.89 mM).

On to `[Cl-].[Cl-].[Zn+2]` [ZnCl2], for which the “Relative activity (%)” value in test [2] (metal 0.19 mM) turned out to be 88%; in test [2] (metal 0.38 mM) it was 88%; in test [2] (metal 0.89 mM) it was 80%.

As for `O.O.O.O.O.O.O.O=S(=O)([O-])[O-].[Zn+2]` [ZnSO4.7H2 O], the “Relative activity (%)” value in test [2] (metal 0.19 mM) is 88%; in test [2] (metal 0.38 mM) it was 88%; in test [2] (metal 0.89 mM) it was 76%.

For the compound `[Mn+2]` [Mn^2+], in test [2], the “inhibition of the enzyme by metal ion” value was “strong inhibition”.

As to `O.O.O.O.O.O.[Cl-].[Cl-].[Mg+2]` [MgCl2.6H2 O], the “Relative activity (%)” value in test [2] (metal 0.19 mM), in test [2] (metal 0.38 mM) and in test [2] (metal 0.89 mM) was 96% each time.

`O=C1O[C@H]([C@@H](O)CO)[C@@H](O)[C@@H]1O` [L-Galactono-r-lactone, L-galactono-gamma-lactone]: in test [1], the “activity of GLDH on substrate” value is on record as “does not use L-galactono-gamma-lactone as a substrate” and the “Relative activity (%)” value came out at 0%.

`O=C(O)CN(CCN(CC(=O)O)CC(=O)O)CC(=O)O` [EDTA]: the “Relative activity (%)” value in test [4] was 95.2% and 100% and 90.5%.

For `O=C1O[C@H](CO)[C@@H](O)[C@H](O)[C@H]1O` [D-Glucono-δ-lactone], the “Relative activity (%)” value in test [1] is 0%.

In the case of `O=C(O)CI` [Monoiodoacetate], the “Relative activity (%)” value in test [4] is 104.8% and 100% and 92.9%.

Regarding `[Ca+2].[Cl-].[Cl-]` [CaCl2], the “Relative activity (%)” value in test [2] (metal 0.19 mM) is 96%; in test [2] (metal 0.38 mM), 104%; in test [2] (metal 0.89 mM) it was 96%.

On to `O=C1O[C@H]([C@@H](O)CO)[C@H](O)[C@@H]1O` [L-Gulono-r-lactone, L-gulono-gamma-lactone], for which the Km in test [5] (DCIP as the electron acceptor, substrate 0.18 mM to 90 mM, read-out: apparent Michaelis constant (Km)) was determined as 34.8 mM. The “substrate concentration of maximum reaction rate” value in test [5] (substrate varied 0.18 mM to 90 mM) was “about 71.8 mM”. In addition, in test [1], the “activity of GLDH on substrate” value is reported as “highly active” and the “Relative activity (%)” value was found to be 100%.

In the case of `Cl.NO` [Hydroxylamine hydrocloride], the “Relative activity (%)” value in test [4] (inhibitor 1.0 mM) and in test [4] (inhibitor 2.0 mM) was 100% throughout.

Regarding `O=C(O)c1cc[c]([Hg][Cl])cc1` [PCMB, p-chloro-mercuribenzoate], the “Relative activity (%)” value in test [4] (inhibitor 0.96 mM) is 90.5%; in test [4] (inhibitor 1.89 mM), 102.4%; in test [4] (inhibitor 4.46 mM), 100%.

As for `O.O.O.O.O.O.[Cl-].[Cl-].[Co+2]` [CoCl2.6H2 O], the “Relative activity (%)” value in test [2] (metal 0.19 mM) came out at 102%; in test [2] (metal 0.38 mM), 110%; in test [2] (metal 0.89 mM), 100%.

Consider `O.O.O.O.O.O=S(=O)([O-])[O-].[Cu+2]` [CuSO4.5H2 O], for which the “Relative activity (%)” value in test [2] (metal 0.19 mM) was determined as 80%; in test [2] (metal 0.38 mM) it was 20%; in test [2] (metal 0.89 mM) it was 0%.

On to `CCN1C(=O)C=CC1=O` [N-Ethyl-maleimide], for which the “Relative activity (%)” value was 95.2% in test [4] (inhibitor 0.96 mM), 100% in test [4] (inhibitor 1.89 mM) and 100% in test [4] (inhibitor 4.46 mM).

For the compound `O=C[C@@H](O)[C@@H](O)[C@H](O)[C@H](O)CO` [D-Mannose], in test [1], the “activity of GLDH on substrate” value is given as “weakly active” and the “Relative activity (%)” value was determined as 7.23%.

The term Km denotes the concentration of substrate that gives half-maximal velocity.
